From patent US20260199305A1, “LONG-ACTING ORAL PHARMACEUTICAL COMPRISING HYPOXIA-INDUCIBLE FACTOR PROLYL HYDROLASE INHIBITOR AND USE THEREOF” (Kind Pharmaceutical, priority 2023, published 2026)

Assays:
[1] = test system: Normal Mice; test: Hemoglobin increase in normal mice, oral QD, TIW, QW; assay type: in vivo, C57BL/6J mice
Description: This experiment evaluated the effects of different dosing frequencies of the test compound Comp-1 at the same weekly dose on hemoglobin and various routine hematological parameters in male C57BL/6J mice.
After acclimatization feeding, on Day 0, submandibular vein blood was collected from 92 male mice aged 6-8 weeks for routine hematological analysis. Based on the Day 0 Hb (hemoglobin) results, 80 mice were selected for use in this experiment and divided into groups as follows: Vehicle (QD, 5 mice), Comp-1 (4.5 mg/kg, QD, 5 mice), Comp-1 (10.5 mg/kg, TIW, 5 mice), Comp-1 (31.5 mg/kg, QW, 5 mice), Comp-1 (9 mg/kg, QD, 15 mice), Comp-1 (21 mg/kg, TIW, 15 mice), Comp-1 (63 mg/kg, QW, 15 mice), Comp-1 (15 mg/kg, QD, 5 mice), Comp-1 (35 mg/kg, TIW, 5 mice), and Comp-1 (105 mg/kg, QW, 5 mice). On Day 14 and Day 28, submandibular vein blood was collected for routine hematological analysis. Quantitative data results were analyzed statistically using one-way analysis of variance (ANOVA) between groups, followed by Dunnett's multiple comparison method. Two-tailed analysis was used for statistics, and the statistical significance level was set at P<0.05.

[2] = Elimination half-life in rats after single oral gavage; assay type: in vivo; conditions: SD, rat, plasma
Experimental: Preparation of Single-Dose Oral Formulation: 25.3800 g of meglumine (Sigma) was weighed and dissolved in 80 mL of deionized water. The resulting mixture was stirred for 35 minutes and the volume was made up to 130 mL to obtain a 1M meglumine solution. 4.31 mg, 13.54 mg, and 40.59 mg of Comp-1 were weighed separately and then added to 28.676 mL, 27 mL, and 27 mL of the 1M meglumine solution respectively. The resulting mixtures each was stirred for 31 minutes and sonicated for 5 minutes to obtain colorless transparent solutions with Comp-1 concentrations of 0.15 mg/mL, 0.5 mg/mL, and 1.5 mg/mL, respectively.
18 SD rats (half male, half female) were randomly divided into 3 groups (3 males and 3 females per group). Comp-1 was administered by oral gavage at doses of 1.5, 5.0, and 15.0 mg/kg. Blood samples were collected before administration and at 0.25, 0.5, 1, 2, 4, 6, 8, 24, 48, and 72 hours after administration. The oral vehicle was a 1 M meglumine solution in deionized water, and the administration volume was 10 mL/kg for all doses. All collected plasma samples were stored at −75±15° C. until analysis. The concentration of Comp-1 in SD rat plasma was determined using liquid chromatography-tandem mass spectrometry with Tolbutamide as an internal standard. The mass spectrometer utilized an electrospray ionization source operating in positive ion mode. The precursor-to-product ion transitions monitored were m/z 381.2→306.3 for Comp-1 and m/z 270.9->155.0 for Tolbutamide. Pharmacokinetic parameters of Comp-1 were calculated by software Phoenix™ WinNonlin version 6.1 using a non-compartmental model. Pharmacokinetic data were calculated using a linear log trapezoidal method with a weighting of 1/Y*Y. Samples with concentrations below the lower limit of quantification were not included in the calculation of pharmacokinetic parameters. Microsoft Excel 2010 was used to calculate the mean values of various parameters, with the mean determined from the pharmacokinetic parameters of each animal. The mean elimination half-lives of Comp-1 in male rats at the doses of 1.5, 5.0, and 15.0 mg/kg were: 6.72 hours, 15.0 hours, and 10.2 hours, respectively. The mean elimination half-lives of Comp-1 in female rats at the doses of 1.5, 5.0, and 15.0 mg/kg were: 12.9 hours, 5.72 hours, and 24.9 hours, respectively.

[3] = 4.5 mg/kg, QD, total weekly dose 31.5 mg/kg
[4] = 9.0 mg/kg, QD, total weekly dose 63.0 mg/kg
[5] = 10.5 mg/kg, TIW, total weekly dose 31.5 mg/kg
[6] = 15.0 mg/kg, QD, total weekly dose 105.0 mg/kg
[7] = 21.0 mg/kg, TIW, total weekly dose 63.0 mg/kg
[8] = 31.5 mg/kg, QW, total weekly dose 31.5 mg/kg
[9] = 35.0 mg/kg, TIW, total weekly dose 105.0 mg/kg
[10] = 63.0 mg/kg, QW, total weekly dose 63.0 mg/kg
[11] = 105.0 mg/kg, QW, total weekly dose 105.0 mg/kg

half-life ([2]; female rats, 1.5 mg/kg oral gavage): 12.9 h
half-life ([2]; female rats, 5.0 mg/kg oral gavage): 5.72 h
half-life ([2]; female rats, 15.0 mg/kg oral gavage): 24.9 h
half-life ([2]; male rats, 1.5 mg/kg oral gavage): 6.72 h
half-life ([2]; male rats, 5.0 mg/kg oral gavage): 15 h
half-life ([2]; male rats, 15.0 mg/kg oral gavage): 10.2 h
Structure (SMILES): O=C(O)CNC(=O)C1=C(O)C2(CCCC2)n2c(ccc2-c2ccccc2)C1=O [Comp-1, (6′-hydroxy-8′-oxo-3′-phenyl-8′H-spiro[cyclopentane-1,5′-indolizine]-7′-carbonyl)glycine]
Hb Day 0 [1, 3]: 15.2 ± 0.61 g/dL
Hb Day 14 [1, 3]: 18.2 ± 0.52 g/dL
Hb Day 28 [1, 3]: 19.7 ± 0.53 g/dL
Hb Day 0 [1, 4]: 15.3 ± 0.51 g/dL
Hb Day 14 [1, 4]: 20.6 ± 0.44 g/dL
Hb Day 28 [1, 4]: 23.1 ± 0.80 g/dL
Hb Day 0 [1, 5]: 15.3 ± 0.66 g/dL
Hb Day 14 [1, 5]: 17.9 ± 0.54 g/dL
Hb Day 28 [1, 5]: 19.2 ± 0.22 g/dL
Hb Day 0 [1, 6]: 15.3 ± 0.48 g/dL
Hb Day 14 [1, 6]: 20.1 ± 0.54 g/dL
Hb Day 28 [1, 6]: 22.8 ± 0.29 g/dL
Hb Day 0 [1, 7]: 15.3 ± 0.49 g/dL
Hb Day 14 [1, 7]: 19.7 ± 0.77 g/dL
Hb Day 28 [1, 7]: 22.0 ± 0.11 g/dL
Hb Day 0 [1, 8]: 15.3 ± 0.48 g/dL
Hb Day 14 [1, 8]: 16.7 ± 0.40 g/dL
Hb Day 28 [1, 8]: 17.2 ± 0.52 g/dL
Hb Day 0 [1, 9]: 15.3 ± 0.44 g/dL
Hb Day 14 [1, 9]: 18.9 ± 0.11 g/dL
Hb Day 28 [1, 9]: 22.4 ± 0.57 g/dL
Hb Day 0 [1, 10]: 15.3 ± 0.51 g/dL
Hb Day 14 [1, 10]: 17.4 ± 0.62 g/dL
Hb Day 28 [1, 10]: 18.5 ± 0.74 g/dL
Hb Day 0 [1, 11]: 15.3 ± 0.50 g/dL
Hb Day 14 [1, 11]: 19.0 ± 0.40 g/dL
Hb Day 28 [1, 11]: 20.0 ± 0.48 g/dL
mean hemoglobin values vs Vehicle control group ([1]; Day 14 and Day 28, all groups receiving Comp-1, P<0.001): significantly different
